Reference: paper PMC9029856, “Impact of Different [Tc(N)PNP]-Scaffolds on the Biological Properties of the Small cRGDfK Peptide: Synthesis, In Vitro and In Vivo Evaluations” (Molecules, 2022)
Where two headings read alike, the source gives them in different places.

Assays:
[1] = tested on: human melanoma M21 (αvβ3 positive) cells; test: Cell uptake and internalization in M21 cells; type: cell-based
Protocol: (§1) Cell uptake and internalization studies were performed on receptor-positive human melanoma M21 (expressing high levels of αvβ3 integrin and moderate level of integrin αvβ5), human breast cancer MCF7 (exclusively expressing αvβ5), and receptor-negative human melanoma M21L cell lines. The expression of αvβ3 and αvβ5 by cells was already evaluated by flow cytometry (Table 2). The stability of each radiolabeled peptide in the culture media before and after cell exposure was assessed.
(§2) Experiments were conducted in suspension at 37 °C. The working conditions were set up to avoid cell damage and/or death. With the use of these information, the cells were pre-incubated in sterile glass tubes at 37 °C for 10 min, in the presence or not of cRGDfK pentapeptide (50 µL; 1.65 mM).
(§3) Then, 1 mL of the cell suspension (1 × 10^6 cells/mL) was incubated with intermittent agitation with 10 µL (10 µCi) of ^99mTc1–3. At 90 min, the cells were moved in Eppendorf microcentrifuge tubes (1.5 mL) and the incubation was interrupted by centrifugation (3000 rpm for 5 min at 10 °C). The supernatant (S1) was separated from the pellet. The cell pellet was treated 10 min at room temperature with saline acetate buffer (CH3COOH 0.2M/NaCl 0.5 M) to remove the membrane-bound compound. After centrifugation (3000 rpm for 10 min at 10 °C), the supernatant (S2) was separated from the pellet (P1), and each fraction was collected, placed in a separated counting tube, and the activity was measured using a NaI counter (Cobra II, Packard) to estimate both the cell uptake and the internalized fraction.
(§4) The uptake of complexes was expressed as percentage cell uptake of the total activity on 10^6 cells (% cell uptake/10^6 cells).
(§5) All assessments were conducted in triplicate for three experiments.

[2] = tested on: M21 and M21L melanoma tumors; conditions: cited from earlier work; for Blood / Heart / Intestine / Kidneys / Liver / Muscle / Stomach: tumor-bearing mice
[3] = type: in vitro ADME; conditions: serum
Protocol: Thus, to have some predictive indications of the metabolic outcome of our compounds, the binding to serum proteins and the enzymatic biotransformation of ^99mTc1–3 in blood and tissue homogenates were assessed in vitro by incubating the purified compounds at 37 °C in human and mouse sera as well as in murine liver and kidney homogenates.
Protein Binding. The affinity of the ^99mTc(N) complexes toward the serum proteins was evaluated by chromatographic methods.
Upon incubation, 25 µL of each sample was withdrawn and loaded on a pre-spun (735× g for 2 min) Sephadex G-50 mini-column. The column was centrifuged at 735 × g for 1 min. The collected eluate and the column were counted in a NaI-scintillation counter. The protein-bound complex was calculated as the percentage of the total activity.

[4] = type: physicochemical
Protocol: To explore the impact of the PNP ligand on the lipophilicity of the complexes, Log Ps in a mixture of n-octanol and PBS were determined. The lipophilicity decreased in the order ^99mTc1 > ^99mTc2 > ^99mTc3. The lipophilic character of each compound correlated well with the corresponding HPLC retention time and protein binding behavior.
Determination of log P values. n-Octanol/PBS partition coefficients were determined by vortex mixing (20 min) 3.0 mL of n-octanol, 3.0 mL of PBS and 100 µL of the radiolabeled compound purified as above. After centrifugation (3000 g for 10 min), aliquots (100 µL) of both the organic and the aqueous phases were collected and counted with a γ-counter.

[5] = tested on: receptor-negative human melanoma M21L cells; test: Cell uptake and internalization in M21L cells; type: cell-based; conditions: negative M21L cell line, 37 °C, 90 min
Protocol: as §1, §2, §3, §4, §5

SMILES: N=C(N)NCCC[C@@H]1NC(=O)[C@H](CCCCNC(=O)c2ccc(NN)nc2)NC(=O)[C@@H](Cc2ccccc2)NC(=O)[C@H](CC(=O)O)NC(=O)CNC1=O [^99mTc-HYNIC-cRGDfK, metal not drawn]
- cell uptake (sum of surface bound and internalized radioactivity), blocked ([1]; M21 blocked by an excess of cold cRGDfK, 37 °C, 90 min): 0.85 ± 0.08 % cell uptake/10^6 cells
- cell uptake (sum of surface bound and internalized radioactivity) ([1]; M21 unblocked, 37 °C, 90 min): 1.50 ± 0.08 % cell uptake/10^6 cells
- specific/nonspecific ratio, internalized radioactivity only ([1]; internalized radioactivity, melanoma cell lines): 6.6
- ratio between specific and non-specific uptake ([1]; total uptake, melanoma cell lines): 1.15
- M21/M21L ratio ([2]; 1 h p.i.): 3.21
- M21/blood ratio ([2]; 1 h p.i.): 2.79
- M21/kidneys ratio ([2]; 1 h p.i.): 0.74
- M21/liver ratio ([2]; 1 h p.i.): 1.03
- M21/muscle ratio ([2]; 1 h p.i.): 3.59
- M21L tumor uptake ([2]; 1 h p.i.): 0.85 ± 0.20 %IA/g
- M21 tumor uptake ([2]; 1 h p.i.): 2.73 ± 0.26 %IA/g
- M21/blood ratio ([2]; 4 h p.i.): 4.58
- M21/kidneys ratio ([2]; 4 h p.i.): 0.73
- M21/liver ratio ([2]; 4 h p.i.): 1.20
- M21/muscle ratio ([2]; 4 h p.i.): 6.05
- M21 tumor uptake ([2]; 4 h p.i.): 2.06 ± 0.37 %IA/g
- Blood ([2]; 1 h p.i.): 0.98 ± 0.04 %IA/g
- Heart ([2]; 1 h p.i.): 1.01 ± 0.05 %IA/g
- Intestine ([2]; 1 h p.i.): 2.04 ± 0.18 %IA/g
- Kidneys ([2]; 1 h p.i.): 3.68 ± 0.13 %IA/g
- Liver ([2]; 1 h p.i.): 2.63 ± 0.14 %IA/g
- Muscle ([2]; 1 h p.i.): 0.76 ± 0.69 %IA/g
- Stomach ([2]; 1 h p.i.): 2.50 ± 0.75 %IA
- Blood ([2]; 4 h p.i.): 0.45 ± 0.02 %IA/g
- Heart ([2]; 4 h p.i.): 0.64 ± 0.09 %IA/g
- Intestine ([2]; 4 h p.i.): 1.29 ± 0.25 %IA/g
- Kidneys ([2]; 4 h p.i.): 2.81 ± 0.37 %IA/g
- Liver ([2]; 4 h p.i.): 1.71 ± 0.28 %IA/g
- Muscle ([2]; 4 h p.i.): 0.34 ± 0.05 %IA/g
- Stomach ([2]; 4 h p.i.): 1.28 ± 0.22 %IA
- fraction unbound [3]: 0.977
- logP [4]: -3.52
- cell uptake (sum of surface bound and internalized radioactivity) [5]: 1.30 ± 0.15 % cell uptake/10^6 cells
